Results taken from ChEMBL document CHEMBL1138902, “New 3-alkylamino-4H-thieno-1,2,4-thiadiazine 1,1-dioxide derivatives activate ATP-sensitive potassium channels of pancreatic beta cells” (J Med Chem, 2006).

Legend:
[1] = tested on: Rattus norvegicus; experiment: Reduction in plasma insulin level in anaesthetized Sprague-Dawley rat at 3 mg/kg, iv; type: functional
[2] = tested on: Rattus norvegicus; experiment: Reduction in plasma insulin level in po dosed Zucker obese rat after 2 hrs; type: functional; conditions: read-out: ID50 (the source's name)
[3] = tested on: Beta-TC3; experiment: Repolarization of beta-TC3 cells; type: functional, cell-based, Mus musculus
[4] = organism: Rattus norvegicus; experiment: Inhibition of glucose-stimulated insulin release in Wistar rat islets; type: functional, organism-based
[5] = organism: Rattus norvegicus; experiment: Relaxation of precontracted Wistar rat aorta rings; type: functional, organism-based; conditions: for EC50: Rattus norvegicus, Aorta
[6] = biological target: T1, Sulfonylurea receptor 1, Kir6.2 (Homo sapiens, UniProt Q09428+Q14654); experiment: Repolarization of HEK293 cells expressing Kir6.2/SUR1 KATP channels; type: functional, cell-based
T1 sequence (Q14654 whole entry): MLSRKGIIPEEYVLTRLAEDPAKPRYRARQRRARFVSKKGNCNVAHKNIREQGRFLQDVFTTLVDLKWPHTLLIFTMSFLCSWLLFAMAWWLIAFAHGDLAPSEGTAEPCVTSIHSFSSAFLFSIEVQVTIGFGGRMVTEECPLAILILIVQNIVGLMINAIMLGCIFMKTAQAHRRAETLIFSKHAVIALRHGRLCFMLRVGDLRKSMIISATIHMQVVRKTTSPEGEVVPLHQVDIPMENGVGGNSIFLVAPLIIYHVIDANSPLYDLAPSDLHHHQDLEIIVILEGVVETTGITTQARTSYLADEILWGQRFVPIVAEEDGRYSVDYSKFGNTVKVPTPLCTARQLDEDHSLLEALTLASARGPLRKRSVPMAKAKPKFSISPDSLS
T1 sequence (Q09428 whole entry): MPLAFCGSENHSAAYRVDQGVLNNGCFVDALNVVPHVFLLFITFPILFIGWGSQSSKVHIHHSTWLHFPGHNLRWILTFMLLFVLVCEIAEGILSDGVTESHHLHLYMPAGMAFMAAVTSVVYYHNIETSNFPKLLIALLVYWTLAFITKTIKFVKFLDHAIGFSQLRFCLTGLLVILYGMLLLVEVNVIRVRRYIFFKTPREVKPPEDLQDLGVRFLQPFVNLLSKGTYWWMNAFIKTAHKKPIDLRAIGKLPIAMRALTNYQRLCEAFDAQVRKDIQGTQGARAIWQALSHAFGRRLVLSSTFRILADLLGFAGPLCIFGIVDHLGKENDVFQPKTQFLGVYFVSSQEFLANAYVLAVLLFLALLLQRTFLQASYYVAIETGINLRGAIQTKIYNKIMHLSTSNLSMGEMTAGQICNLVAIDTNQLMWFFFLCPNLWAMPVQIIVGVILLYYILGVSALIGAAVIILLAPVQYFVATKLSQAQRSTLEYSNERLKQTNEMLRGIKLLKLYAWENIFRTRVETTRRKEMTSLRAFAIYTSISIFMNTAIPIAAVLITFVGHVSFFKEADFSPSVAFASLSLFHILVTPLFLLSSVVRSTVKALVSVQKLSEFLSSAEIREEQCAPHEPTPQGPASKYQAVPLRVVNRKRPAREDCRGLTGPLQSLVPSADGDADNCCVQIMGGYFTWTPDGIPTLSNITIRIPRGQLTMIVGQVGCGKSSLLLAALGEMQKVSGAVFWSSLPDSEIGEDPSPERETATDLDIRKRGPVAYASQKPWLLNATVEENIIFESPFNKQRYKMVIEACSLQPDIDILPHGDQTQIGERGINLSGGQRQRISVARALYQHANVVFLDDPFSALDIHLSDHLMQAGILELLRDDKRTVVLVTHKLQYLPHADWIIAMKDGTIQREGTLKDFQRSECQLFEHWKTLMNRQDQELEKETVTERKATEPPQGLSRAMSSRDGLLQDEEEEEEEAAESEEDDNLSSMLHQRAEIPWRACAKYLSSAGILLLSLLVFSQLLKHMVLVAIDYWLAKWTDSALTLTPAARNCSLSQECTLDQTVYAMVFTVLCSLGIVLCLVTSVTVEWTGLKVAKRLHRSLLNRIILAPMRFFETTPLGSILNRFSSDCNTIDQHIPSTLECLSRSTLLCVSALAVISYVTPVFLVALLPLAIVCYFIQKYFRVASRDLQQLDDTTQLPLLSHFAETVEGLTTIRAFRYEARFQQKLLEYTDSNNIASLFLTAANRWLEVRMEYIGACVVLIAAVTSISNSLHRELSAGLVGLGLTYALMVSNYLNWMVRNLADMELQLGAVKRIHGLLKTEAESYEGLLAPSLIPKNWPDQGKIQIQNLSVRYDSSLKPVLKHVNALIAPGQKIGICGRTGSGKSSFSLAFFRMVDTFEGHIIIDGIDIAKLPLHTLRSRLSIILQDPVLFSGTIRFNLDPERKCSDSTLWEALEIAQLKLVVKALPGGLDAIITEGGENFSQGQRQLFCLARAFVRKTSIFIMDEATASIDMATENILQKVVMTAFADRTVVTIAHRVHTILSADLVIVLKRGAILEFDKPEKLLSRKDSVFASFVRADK

[7] = tested on: Beta-TC6; experiment: Inhibition of glucose-stimulated insulin release in betaTC6 cells; type: functional, cell-based; conditions: Mus musculus
[8] = tested on: Beta-TC6; experiment: Inhibition of glucose-stimulated insulin release in beta-TC6 cells at 10 uM; type: functional, Mus musculus
[9] = Plasma concentration in Sprague-Dawley rat after 30 mins; type: ADME, organism-based
[10] = Cmax in Sprague-Dawley rat at 2.48 mg/kg, po; type: ADME, organism-based; design: dose 2.48 mg/kg, route oral; conditions: in vivo
[11] = Tmax in Sprague-Dawley rat at 2.48 mg/kg, po or 1.08 mg/kg, iv; type: ADME, organism-based; conditions: in vivo
[12] = Oral bioavailability in Sprague-Dawley rat at 2.48 mg/kg, po; type: ADME, organism-based; conditions: in vivo
[13] = Clearance in Sprague-Dawley rat at 2.48 mg/kg, po or 1.08 mg/kg, iv; type: ADME, organism-based; conditions: in vivo
[14] = Half life in Sprague-Dawley rat at 2.48 mg/kg, po; type: ADME, organism-based; design: dose 2.48 mg/kg, route oral; conditions: in vivo
[15] = Cmax in Sprague-Dawley rat at 2 mg/kg, po; type: ADME, organism-based; design: dose 2 mg/kg, route oral; conditions: in vivo
[16] = Tmax in Sprague-Dawley rat at 2 mg/kg, po or 0.5 mg/kg, iv; type: ADME, organism-based; conditions: in vivo
[17] = tested on: Rattus norvegicus; experiment: Oral bioavailability in Sprague-Dawley rat at 2 mg/kg, po; type: ADME, organism-based; conditions: in vivo
[18] = Clearance in Sprague-Dawley rat at 2 mg/kg, po or 0.5 mg/kg, iv; type: ADME, organism-based; conditions: in vivo
[19] = Half life in Sprague-Dawley rat at 2 mg/kg, po; type: ADME, organism-based; design: dose 2 mg/kg, route oral; conditions: in vivo
[20] = Cmax in Sprague-Dawley rat at 1.89 mg/kg, po; type: ADME, organism-based; design: dose 1.89 mg/kg, route oral; conditions: in vivo
[21] = Tmax in Sprague-Dawley rat at 1.89 mg/kg, po or 0.89 mg/kg, iv; type: ADME, organism-based; conditions: in vivo
[22] = Oral bioavailability in Sprague-Dawley rat at 1.89 mg/kg, po; type: ADME, organism-based; conditions: in vivo
[23] = Clearance in Sprague-Dawley rat at 1.89 mg/kg, po or 0.89 mg/kg, iv; type: ADME, organism-based; conditions: in vivo
[24] = Half life in Sprague-Dawley rat at 1.89 mg/kg, po; type: ADME, organism-based; design: dose 1.89 mg/kg, route oral; conditions: in vivo
[25] = biological target: T1, Sulfonylurea receptor 1, Kir6.2; experiment: Displacement of [3H]glibenclamide from human Kir6.2/SUR1 expressed in HEK293 cells in presence of 2 mM ATP; type: cell-based
[26] = biological target: T1, Sulfonylurea receptor 1, Kir6.2; experiment: Displacement of [3H]glibenclamide from human Kir6.2/SUR1 expressed in HEK293 cells; type: cell-based
[27] = Cmax in Sprague-Dawley rat at 2.3 mg/kg, po; type: ADME, organism-based; design: dose 2.3 mg/kg, route oral; conditions: in vivo
[28] = Tmax in Sprague-Dawley rat at 2.3 mg/kg, po or 1.24 mg/kg, iv; type: ADME, organism-based; conditions: in vivo
[29] = Oral bioavailability in Sprague-Dawley rat at 2.3 mg/kg, po; type: ADME, organism-based; conditions: in vivo
[30] = Clearance in Sprague-Dawley rat at 2.3 mg/kg, po or 1.24 mg/kg, iv; type: ADME, organism-based; conditions: in vivo
[31] = Half life in Sprague-Dawley rat at 2.3 mg/kg, po; type: ADME, organism-based; design: dose 2.3 mg/kg, route oral; conditions: in vivo
[32] = Cmax in Sprague-Dawley rat at 2.19 mg/kg, po; type: ADME, organism-based; design: dose 2.19 mg/kg, route oral; conditions: in vivo
[33] = Tmax in Sprague-Dawley rat at 2.19 mg/kg, po or 1.22 mg/kg, iv; type: ADME, organism-based; conditions: in vivo
[34] = Oral bioavailability in Sprague-Dawley rat at 2.19 mg/kg, po; type: ADME, organism-based; conditions: in vivo
[35] = Clearance in Sprague-Dawley rat at 2.19 mg/kg, po or 1.22 mg/kg, iv; type: ADME, organism-based; conditions: in vivo
[36] = Half life in Sprague-Dawley rat at 2.19 mg/kg, po; type: ADME, organism-based; design: dose 2.19 mg/kg, route oral; conditions: in vivo
[37] = Mus musculus, Beta-TC3, read-out: EC50

SMILES	EC50 [3, 37]	EC50 [5]	EC50 [7]	Efficacy [8]	other results
CC1(NC2=NS(=O)(=O)c3sc(Br)cc3N2)CC1	0.14 µM	133 µM	0.31 µM	81%	inhibition in vivo at 3 mg/kg [1]: 97%; ED50 [2]: < 3 mg/kg; EC50 [4]: 0.02 µM; EC50 [6]: 0.16 µM; concentration at 0.5 h [9]: 0.34 µg/mL; Cmax [10]: 0.885 µg/mL; Tmax [11]: 1.5 h; bioavailability [12]: 96%; clearance [13]: 0.9 L/h/kg; half-life [14]: 2.6 h
C[C@@H](NC1=NS(=O)(=O)c2sc(Cl)cc2N1)c1ccccc1	0.5 µM	24 µM	0.99 µM	68%	
O=S1(=O)N=C(NC2(c3cccc(Cl)c3)CCC2)Nc2cc(Cl)sc21	0.16 µM	13.9 µM	13.4 µM	40%	
CC1=Nc2ccc(Cl)cc2S(=O)(=O)N1 [DIAZOXIDE]	13.7 µM		23 µM	25%	inhibition in vivo at 3 mg/kg [1]: 53%; ED50 [2]: > 30 mg/kg; EC50 [4]: 20.3 µM; Cmax [15]: 1.45 µg/mL; Tmax [16]: 1 h; F [17]: 154%; clearance [18]: 0.48 L/h/kg; half-life [19]: 1.32 h
C[C@H](NC1=NS(=O)(=O)c2sc(Cl)cc2N1)c1ccccc1	3.5 µM	34.9 µM	13 µM	28%	Emax ([3]; Mus musculus, Beta-TC3): < 60%
O=S1(=O)NC(NC2(c3ccccc3)CC2)=Nc2cc(Cl)sc21	0.48 µM	183 µM	2.67 µM	66%	EC50 [4]: 0.11 µM; EC50 [6]: 0.81 µM
O=S1(=O)N=C(NCC(F)(F)F)Nc2cc(Cl)sc21	3.1 µM	173 µM	0.15 µM	36%	
CC1(NC2=NS(=O)(=O)c3cc(Cl)sc3N2)CC1					EC50 ([3]; beta-tc3): Not Active
CN1C(NC2(C)CC2)=NS(=O)(=O)c2sc(Cl)cc21			0.74 µM	23%	EC50 ([3]; beta-tc3): Not Active
CC1(NC2=NS(=O)(=O)c3sc(Cl)cc3N2)CC1 [TIFENAZOXIDE]			0.25 µM	73%	inhibition in vivo at 3 mg/kg [1]: 85%; ED50 [2]: 1.5 mg/kg; Cmax [20]: 1.23 µg/mL; Tmax [21]: 0.5 h; bioavailability [22]: 103%; clearance [23]: 0.421 L/h/kg; half-life [24]: 4.17 h
CC1(NC2=NS(=O)(=O)c3sccc3N2)CC1	> 30 µM	6.87 µM	0.19 µM	19%	Efficacy [5]: 18%
CC(C)(NC1=NS(=O)(=O)c2sc(Cl)cc2N1)c1ccccc1	0.13 µM	103 µM	0.24 µM	76%	IC50 [25]: 0.081 µM; IC50 [26]: 360 µM; inhibition in vivo at 3 mg/kg [1]: 86%; ED50 [2]: 4 mg/kg; EC50 [4]: 0.04 µM; EC50 [6]: 0.18 µM; Cmax [27]: 2.59 µg/mL; Tmax [28]: 0.25 h; bioavailability [29]: 82%; clearance [30]: 0.438 L/h/kg; half-life [31]: 0.867 h
COc1ccc(C2(NC3=NS(=O)(=O)c4sc(Cl)cc4N3)CC2)cc1	0.5 µM	2.89 µM	3.57 µM	69%	
O=S1(=O)N=C(NC2(C(F)(F)F)CC2)Nc2cc(Cl)sc21	0.4 µM	40 µM	1.4 µM	76%	inhibition in vivo at 3 mg/kg [1]: 90%; ED50 [2]: 8 mg/kg; EC50 [4]: 0.16 µM; EC50 [6]: 0.53 µM; Cmax [32]: 0.533 µg/mL; Tmax [33]: 0.5 h; bioavailability [34]: 70%; clearance [35]: 0.3 L/h/kg; half-life [36]: 5.5 h
CC1(NC2=NS(=O)(=O)c3scc(Br)c3N2)CC1			6.7 µM	5%	EC50 ([3]; beta-tc3): Not Active
O=S1(=O)NC(NCc2ccccc2)=Nc2cc(Cl)sc21	3.6 µM	133 µM	6.11 µM	30%	Emax ([3]; Mus musculus, Beta-TC3): < 60%
CC1(NC2=NS(=O)(=O)c3sc(Cl)cc3N2)CCC1	0.02 µM		0.02 µM	92%	
CC(C)NC1=NS(=O)(=O)c2cc(Cl)sc2N1	5 µM	> 300 µM	19.8 µM	16%	
CC1(NC2=NS(=O)(=O)c3scc(Cl)c3N2)CC1			0.28 µM	2%	EC50 ([3]; beta-tc3): Not Active
C[C@H](NC1=NS(=O)(=O)c2sc(Cl)cc2N1)c1ccc(Br)cc1	2 µM	95 µM	2.07 µM	69%	
